Values quoted from earlier work as cited in patent US20230116647A1 (Bausch Health Ireland Limited, priority 2020, published 2023).

Key:
[1] = system: species of Staphylococcus, Streptococcus, Enterococcus, and Enterobacteriaceae; details: cited from earlier work
[2] = system: visceral hyperalgesia; details: rat, in vivo; cited from earlier work
[3] = system: proteoglycan (PG)-induced ankylosing spondylitis; details: administered for 4 consecutive weeks; cited from earlier work
[4] = system: Hepatic Encephalopathy; details: mouse, in vivo; cited from earlier work
[5] = system: Minimal Hepatic Encephalopathy; details: cited from earlier work
[6] = system: NASH; details: after 6 months of therapy; all P<0.05; cited from earlier work

CO[C@H]1/C=C/O[C@@]2(C)Oc3c(C)c(O)c4c(O)c(c5c(nc6cc(C)ccn65)c4c3C2=O)NC(=O)/C(C)=C\C=C\[C@H](C)[C@H](O)[C@@H](C)[C@@H](O)[C@@H](C)[C@H](OC(C)=O)[C@@H]1C [rifaximin, Rifaximin]
in vitro activity against bacteria [1]: active
mucosal inflammation, measured by levels of IL-17, IL-6 and TNF-α [2]: decreased
overall quantity of bacteria in the ileum [2]: decreased
inflammatory factors, such as TNF-α, IL-6, IL-17A, and IL-23 [3]: down-regulation
severity of ankylosing spondylitis [3]: significantly reduced
microbiota function (endotoxin, deconjugation and formation of secondary bile acids) [4]: favorably impacted
systemic inflammation (serum IL-1β, IL-6), intestinal barrier, microbiota composition and function [4]: improved
responders in whom all alterations of the immune system were normalized ([5]; human, in vivo): 59%
effect on alterations of the immune system in non-responders ([5]; non-responders): normalizes only IL-6, CCL20, and differentiation of T lymphocytes to Th22
homeostatic model assessment, ALT, AST, γ-glutamyl transferase, endotoxin, toll-like receptor-4, IL-6, TNF-α, CK-18, NAFLD-liver fat score [6]: significant reduction

neomycin
elevation in IL-17, IL-6, or TNF-α [2]: did not prevent
visceral pain [2]: did not decrease
